According to patent US9834542B2, “LXR modulators” (BRISTOL-MYERS SQUIBB COMPANY, priority 2013, dated 2017):

Molecular target: T1, LXRβ (Homo sapiens, UniProt P55055)
T1 construct: Co-transfection expression plasmids, comprising full-length LXRα (pCMX-h LXRα[…] or LXRβ (pCMX-hLXRβ)); expressed in transfected cells; host or cells: CV-1 African Green Monkey Kidney Cells
T1 sequence (P55055 1-460): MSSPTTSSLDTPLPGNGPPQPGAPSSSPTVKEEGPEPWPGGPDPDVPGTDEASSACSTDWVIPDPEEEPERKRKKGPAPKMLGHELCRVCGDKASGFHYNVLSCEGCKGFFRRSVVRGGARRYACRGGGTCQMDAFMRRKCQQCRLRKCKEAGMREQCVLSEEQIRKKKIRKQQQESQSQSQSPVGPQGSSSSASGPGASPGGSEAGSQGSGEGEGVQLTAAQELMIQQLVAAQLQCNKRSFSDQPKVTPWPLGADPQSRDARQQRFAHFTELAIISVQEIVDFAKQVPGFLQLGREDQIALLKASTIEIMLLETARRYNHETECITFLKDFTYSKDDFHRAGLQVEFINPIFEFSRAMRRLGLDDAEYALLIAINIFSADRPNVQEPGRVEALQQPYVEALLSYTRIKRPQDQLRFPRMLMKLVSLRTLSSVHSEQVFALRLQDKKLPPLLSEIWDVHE
T1 sequence (P19793 1-462 partner): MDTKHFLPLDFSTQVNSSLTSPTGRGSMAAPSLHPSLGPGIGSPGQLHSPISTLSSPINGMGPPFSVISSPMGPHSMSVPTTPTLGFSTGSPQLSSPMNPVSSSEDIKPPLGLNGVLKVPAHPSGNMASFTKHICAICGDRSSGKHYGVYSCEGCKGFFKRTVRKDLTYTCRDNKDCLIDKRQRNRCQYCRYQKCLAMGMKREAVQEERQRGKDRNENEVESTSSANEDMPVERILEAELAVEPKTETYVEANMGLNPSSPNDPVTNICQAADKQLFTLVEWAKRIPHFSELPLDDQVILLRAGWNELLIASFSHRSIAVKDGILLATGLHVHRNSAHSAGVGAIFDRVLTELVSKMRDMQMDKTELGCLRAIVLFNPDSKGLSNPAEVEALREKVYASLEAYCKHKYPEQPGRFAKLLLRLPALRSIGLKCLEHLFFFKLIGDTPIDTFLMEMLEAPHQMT
Test: Co-transfection assay (LXRE luciferase reporter), LXRβ
Format: cell-based
Conditions: for EC50: CV-1 cells transfected with pCMX-hLXRβ and LXREx1-Tk-Luciferase, 20 hours incubation; for Emax: LXRβ co-transfection, relative to high control 1-(2,4-difluorobenzyl)-2-oxo-6-(4-phenoxyphenyl)-4-(trifluoromethyl)-1,2-dihydropyridine-3-carbonitrile, read-out: % Efficacy
In short: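 CV-1 / pCMX-hLXRβ + LXREx1-Tk-Luc + β-gal; cpd 20 h, 37 °C, ≤0.5% DMSO; Steady-Glo luminescence. 11-pt ½-log curves, duplicate wells, sigmoidal fit → EC50; % efficacy vs high-control agonist, DMSO low control; mean of ≥2 expts.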

| Compound | EC50 [µM] | Emax [%] |
| --- | --- | --- |
| Cc1nc(-c2cc(-c3cccc(S(C)(=O)=O)c3)ccc2-n2cc(C(F)(F)F)nc2C)c(-c2cc(Cl)cc(Cl)c2)o1 [Example 455, 5-(3,5-dichlorophenyl)-2-methyl-4-(4-(2-methyl-4-(trifluoromethyl)-1H-imidazol-1-yl)-3′-(methylsulfonyl)biphenyl-3-yl)oxazole] | 0.192 | 43 |
| Cc1nc(-c2cc(-c3cccc(S(C)(=O)=O)c3)ccc2-n2cc(C(F)(F)F)nc2C)c(-c2ccc(Cl)c(OC(F)F)c2)o1 [Example 458, 5-(4-chloro-3-(difluoromethoxy)phenyl)-2-methyl-4-(4-(2-methyl-4-(trifluoromethyl)-1H-imidazol-1-yl)-3′-(methylsulfonyl)biphenyl-3-yl)oxazole] | 0.398 | 62 |
| Cc1nc(-c2cc(-c3cc(F)c(CO)c(S(C)(=O)=O)c3)ccc2-n2cc(C(F)(F)F)nc2C)c(-c2ccc(Cl)c(OC(F)F)c2)o1 [Example 459, (3′-(5-(4-chloro-3-(difluoromethoxy)phenyl)-2-methyloxazol-4-yl)-3-fluoro-4′-(2-methyl-4-(trifluoromethyl)-1H-imidazol-1-yl)-5-(methylsulfonyl)biphenyl-4-yl)methanol] | 0.174 | 77 |
| Cc1nc(-c2cc(-c3cccc(S(C)(=O)=O)c3)ccc2-n2cc(C(F)(F)F)nc2C)c(-c2ccc(F)c(OC(F)F)c2)o1 [Example 460, 5-(3-(difluoromethoxy)-4-fluorophenyl)-2-methyl-4-(4-(2-methyl-4-(trifluoromethyl)-1H-imidazol-1-yl)-3′-(methylsulfonyl)biphenyl-3-yl)oxazole] | 0.55 | 64 |
| Cc1nc(-c2cc(-c3cc(F)cc(S(C)(=O)=O)c3)ccc2-n2cc(C(F)(F)F)nc2C)c(-c2ccc(OC(F)F)c(F)c2)o1 [Example 462] | 0.233 | 73 |
| COc1ncc(-c2oc(C)nc2-c2cc(-c3cccc(S(C)(=O)=O)c3)ccc2-n2cc(Cl)nc2C)cc1F [Example 464, 4-(4-(4-chloro-2-methyl-1H-imidazol-1-yl)-3′-(methylsulfonyl)biphenyl-3-yl)-5-(5-fluoro-6-methoxypyridin-3-yl)-2-methyloxazole] | 4.68 | 42 |
| COc1ncc(-c2oc(C)nc2-c2cc(-c3cc(F)c(CO)c(S(C)(=O)=O)c3)ccc2-n2cc(Cl)nc2C)cc1F [Example 465, (4′-(4-chloro-2-methyl-1H-imidazol-1-yl)-3-fluoro-3′-(5-(5-fluoro-6-methoxypyridin-3-yl)-2-methyloxazol-4-yl)-5-(methylsulfonyl)biphenyl-4-yl)methanol] | 0.24 | 45 |
| Cc1nc(-c2cc(-c3cccc(S(C)(=O)=O)c3)ccc2-n2cc(Cl)nc2C)c(-c2ccc(OC(F)F)c(F)c2)o1 [Example 466, 4-(4-(4-chloro-2-methyl-1H-imidazol-1-yl)-3′-(methylsulfonyl)biphenyl-3-yl)-5-(4-(difluoromethoxy)-3-fluorophenyl)-2-methyloxazole] | 0.198 | 84 |
| Cc1cc(-c2oc(C)nc2-c2cc(-c3cccc(S(C)(=O)=O)c3)ccc2-n2cc(Cl)nc2C)cc(Cl)n1 [Example 468, 4-(4-(4-chloro-2-methyl-1H-imidazol-1-yl)-3′-(methylsulfonyl)biphenyl-3-yl)-5-(2-chloro-6-methylpyridin-4-yl)-2-methyloxazole] | 0.442 | 47 |
| CCOc1ncc(-c2oc(C)nc2-c2cc(-c3cccc(S(C)(=O)=O)c3)ccc2-n2cc(C(F)(F)F)nc2C)cc1F [Example 471, 5-(6-ethoxy-5-fluoropyridin-3-yl)-2-methyl-4-(4-(2-methyl-4-(trifluoromethyl)-1H-imidazol-1-yl)-3′-(methylsulfonyl)biphenyl-3-yl)oxazole] | 0.201 | 45 |
| CCOc1ncc(-c2oc(C)nc2-c2cc(-c3cc(F)c(CO)c(S(C)(=O)=O)c3)ccc2-n2cc(C(F)(F)F)nc2C)cc1F [Example 472, (3′-(5-(6-ethoxy-5-fluoropyridin-3-yl)-2-methyloxazol-4-yl)-3-fluoro-4′-(2-methyl-4-(trifluoromethyl)-1H-imidazol-1-yl)-5-(methylsulfonyl)biphenyl-4-yl)methanol] | 0.199 | 50 |
| CCOc1ncc(-c2oc(C)nc2-c2cc(-c3ccc(C)c(S(C)(=O)=O)c3)ccc2-n2cc(C(F)(F)F)nc2C)cc1F [Example 473, 5-(6-ethoxy-5-fluoropyridn-3-yl)-2-methyl-4-(4′-methyl-4-(2-methyl-4-(trifluoromethyl)-1H-imidazol-1-yl)-3′-(methylsulfonyl)biphenyl-3-yl)oxazole] | 0.28 | 50 |

Compounds with a lower EC50, results first:

| EC50 [µM] | Emax [%] | Compound |
| --- | --- | --- |
| 0.155 | 73 | Cc1nc(-c2cc(-c3cc(F)cc(S(C)(=O)=O)c3)ccc2-n2cc(C(F)(F)F)nc2C)c(-c2ccc3c(c2)OC(F)(F)O3)o1 [Example 463, 5-(2,2-difluorobenzo[d][1,3]dioxol-5-yl)-4-(3′-fluoro-4-(2-methyl-4-(trifluoromethyl)-1H-imidazol-1-yl)-5′-(methylsulfonyl)biphenyl-3-yl)-2-methyloxazole] |
| 0.127 | 61 | Cc1nc(-c2cc(-c3cc(F)c(CO)c(S(C)(=O)=O)c3)ccc2-n2cc(C(F)(F)F)nc2C)c(-c2ccc(F)c(OC(F)F)c2)o1 [Example 461, (3′-(5-(3-(difluoromethoxy)-4-fluorophenyl)-2-methyloxazol-4-yl)-3-fluoro-4′-(2-methyl-4-(trifluoromethyl)-1H-imidazol-1-yl)-5-(methylsulfonyl)biphenyl-4-yl)methanol] |
| 0.109 | 56 | Cc1nc(-c2cc(-c3ccc(C)c(S(C)(=O)=O)c3)ccc2-n2cc(C(F)(F)F)nc2C)c(-c2cc(F)c(OC(F)F)c(F)c2)o1 [Example 470, 5-(4-(difluoromethoxy)-3,5-difluorophenyl)-2-methyl-4-(4′-methyl-4-(2-methyl-4-(trifluoromethyl)-1H-imidazol-1-yl)-3′-(methylsulfonyl)biphenyl-3-yl)oxazole] |
| 0.089 | 70 | Cc1nc(-c2cc(-c3ccc(CO)c(S(C)(=O)=O)c3)ccc2-n2cc(C(F)(F)F)nc2C)c(-c2cc(F)c(OC(F)F)c(F)c2)o1 [Example 469, (3′-(5-(4-(difluoromethoxy)-3,5-difluorophenyl)-2-methyloxazol-4-yl)-4′-(2-methyl-4-(trifluoromethyl)-1H-imidazol-1-yl)-3-(methylsulfonyl)biphenyl-4-yl)methanol] |
| 0.066 | 65 | Cc1nc(-c2cc(-c3cc(F)c(CO)c(S(C)(=O)=O)c3)ccc2-n2cc(Cl)nc2C)c(-c2ccc(OC(F)F)c(F)c2)o1 [Example 467, (4′-(4-chloro-2-methyl-1H-imidazol-1-yl)-3′-(5-(4-(difluoromethoxy)-3-fluorophenyl)-2-methyloxazol-4-yl)-3-fluoro-5-(methylsulfonyl)biphenyl-4-yl)methanol] |
| 0.058 | 76 | Cc1nc(-c2cc(-c3cc(F)c(CO)c(S(C)(=O)=O)c3)ccc2-n2cc(C(F)(F)F)nc2C)c(-c2cc(F)c(OC(F)F)c(F)c2)o1 [Example 457, (3′-(5-(4-(difluoromethoxy)-3,5-difluorophenyl)-2-methyloxazol-4-yl)-3-fluoro-4′-(2-methyl-4-(trifluoromethyl)-1H-imidazol-1-yl)-5-(methylsulfonyl)biphenyl-4-yl)methanol] |
| 0.057 | 45 | Cc1nc(-c2cc(-c3cc(F)c(CO)c(S(C)(=O)=O)c3)ccc2-n2cc(C(F)(F)F)nc2C)c(-c2cc(Cl)cc(Cl)c2)o1 [Example 456, (3′-(5-(3,5-dichlorophenyl)-2-methyloxazol-4-yl)-3-fluoro-4′-(2-methyl-4-(trifluoromethyl)-1H-imidazol-1-yl)-5-(methylsulfonyl)biphenyl-4-yl)methanol] |
| 0.037 | 38 | Cc1nc(-c2cc(-c3cc(F)c(CO)c(S(C)(=O)=O)c3)ccc2-n2cc(C(F)(F)F)nc2C)c(-c2ccc(F)cc2F)o1 [Example 454, (3′-(5-(2,4-difluorophenyl)-2-methyloxazol-4-yl)-3-fluoro-4′-(2-methyl-4-(trifluoromethyl)-1H-imidazol-1-yl)-5-(methylsulfonyl)biphenyl-4-yl)methanol] |
